Common to all, as to assay: growth of human tumour cells (NCI), 48 h
For experiment [1], the system named is 786-0 renal.
Experiment [2] has as its system ACHN renal.
The test system of experiment [3] is HOP-62 NSCLC.
Experiment [4] deals with HS 578T breast.
The subject of experiment [5] is LOX IMVI melanoma.
Experiment [6] concerns M14 melanoma.
Experiment [7] relates to MCF7 breast.
Experiment [8] concerns RXF 393 renal.
In experiment [9] the test system is SK-MEL-2 melanoma.
Experiment [10] concerns SNB-19 CNS.

Several values for one entry are separate records, joined by “and”; a condition that tells them apart may be missing. Equal values may be shown once.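 Five concentrations, 48 hours, 96-well plates. GI50 = concentration required for 50% inhibition of growth. TGI: concentration producing complete growth inhibition.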 Where only a bound is given, the exact number is not on record here.

Consider `O=C(c1ccccc1)C1C(C(=O)c2ccccc2)C(c2ccccc2)N(c2ccccc2)C1c1ccccc1` (stereo not given), for which the TGI in experiment [1], in experiment [2], in experiment [3], in experiment [4], in [5] and in experiment [6] was over 100 µM in each case. Moreover, the TGI in experiment [7], in experiment [8], in experiment [9] and in experiment [10] was over 100 µM in each case.

With `O=C(Nc1ccc(I)cc1F)c1cc(I)ccc1O`, the GI50 was 1.03 µM in experiment [1]; 1.69 µM in [2]; 0.815 µM in experiment [3]; 0.617 µM in experiment [4]; 0.38 µM in experiment [5]; 0.773 µM in experiment [6]. Further, the GI50 is 1.55 µM in [7], 0.779 µM in experiment [8], 0.319 µM in experiment [9] and 0.664 µM in experiment [10]. In addition, the TGI was 9.51 µM in experiment [1]; over 100 µM in experiment [2]; 3.4 µM in experiment [3]; 3.95 µM in [4]; 1.67 µM in [5]; 3.75 µM in [6]. In addition, the TGI in experiment [7] was 9.28 µM; in [8], 3.24 µM; in experiment [9], 1.59 µM; in experiment [10], over 100 µM.

Regarding `CCCn1c(N)c(C(=O)CNc2ccc(I)cc2)c(=O)[nH]c1=O`, the GI50 in experiment [1] was 4.21 µM; in experiment [2] it was 8.69 µM; in experiment [3], 9.98 µM; in [4], 17.4 µM; in [5], 0.653 µM; in experiment [6], over 100 µM. The GI50 in experiment [7] is 0.806 µM; in experiment [8] it was 21.5 µM; in experiment [9], over 100 µM; in [10] it was 2.02 µM. Also, the TGI in [1], in experiment [2], in experiment [3], in experiment [4], in experiment [5] and in [6] was over 100 µM in each case. Further, the TGI was over 100 µM in [7], over 100 µM in [8], over 100 µM in [9] and over 59.5 µM in experiment [10].

`CCOC(=O)c1ccccc1-c1c2ccc(=[N+](C)C)cc-2oc2cc(N(C)C)ccc12`: the GI50 in experiment [1] was 0.94 µM; in [2], 1.28 µM; in experiment [3] it was 0.352 µM; in [4], 0.548 µM; in experiment [5] it was 0.388 µM; in experiment [6], 0.448 µM. Further, the GI50 in experiment [7] is 0.101 µM; in [8] it was 0.692 µM; in experiment [9], 0.579 µM; in experiment [10] it was 0.103 µM. Further, the TGI in experiment [1] is over 36.5 µM; in [2], 8.1 µM; in experiment [3], 10.3 µM; in [4], 51.2 µM; in experiment [5], 4.41 µM; in experiment [6], 10.9 µM. In addition, the TGI in experiment [7] worked out at 19.4 µM; in [8] it was 7.58 µM; in experiment [9], 4.1 µM; in experiment [10], 16.7 µM.

Take `Cc1c(C(=O)O[C@H]2[C@@H]3[C@H](C)CC[C@H]3[C@]3(C)O[C@@]2(C2CCCCC2)C[C@H]3OC(=O)CO)ccc2ccccc12`: the GI50 was 6.52 µM in experiment [1]; 0.0589 µM in experiment [2]; 8.48 µM in experiment [3]; 0.0165 µM in experiment [4]; 7.45 µM in [5]; 7.92 µM in experiment [6]. Also, the GI50 is 7.38 µM in [7], 0.164 µM in experiment [8], 9.19 µM in experiment [9] and 8.56 µM in experiment [10]. Also, the TGI in experiment [1] was 13.1 µM; in experiment [2], 0.766 µM; in [3], 15.3 µM; in experiment [4], 0.142 µM; in experiment [5], 14.2 µM; in experiment [6] it was 16.7 µM. Also, the TGI came out at 15.9 µM in experiment [7], 7.12 µM in experiment [8], 16.7 µM in experiment [9] and 15.6 µM in [10].

In the case of `COc1ccc(/C=N/N=C(\[O-])c2ccncc2)cc1F.COc1ccc(/C=N\N=C(/[O-])c2ccncc2)cc1F.[Cu+2]`, the GI50 was 20.2 µM in experiment [1]; 39.5 µM in experiment [2]; 20.3 µM in experiment [3]; 18 µM in experiment [4]; 68.8 µM in [5]; 47.2 µM in experiment [6]. In addition, the GI50 in experiment [7] is 17.9 µM; in [8] it was 18.9 µM; in experiment [9], 23 µM; in experiment [10], 17.8 µM. In addition, the TGI in [1] is 44.3 µM; in experiment [2], over 100 µM; in experiment [3], 41 µM; in experiment [4], 60 µM; in experiment [5] it was over 100 µM; in experiment [6], over 100 µM. In addition, the TGI in experiment [7] amounted to 35 µM; in [8], 32.9 µM; in experiment [9] it was 53.2 µM; in experiment [10], 35.7 µM.

For `O=S(=O)(O)ONC1=NCCN1`, the GI50 was 90.6 µM in [1]; over 100 µM in [2]; over 100 µM in experiment [3]; 26.9 µM in [4]; 76.6 µM in [5]; over 100 µM in experiment [6]. Further, the GI50 was 16.1 µM in [7], 66.7 µM in experiment [8], over 100 µM in [9] and over 100 µM in [10]. The TGI in experiment [1], in [2], in experiment [3], in experiment [4], in experiment [5] and in [6] was over 100 µM throughout. Moreover, the TGI in [7], in experiment [8], in experiment [9] and in experiment [10] was over 100 µM in each case.

With `O=C(O)C(=O)CBr`, the GI50 in experiment [1] was 16.9 µM and 21.7 µM; in experiment [2], > 35.8 µM and 16.3 µM; in [3] it was > 100 µM and 19.3 µM; in experiment [4], > 100 µM and 29.2 µM; in [5] it was > 44.4 µM and 17.3 µM; in [6], > 89.1 µM and 44 µM. Moreover, the GI50 was > 61.4 µM and 29.3 µM in [7]; 64 µM and 17 µM in [8]; > 100 µM and 20 µM in [9]; over 100 µM in [10]. Moreover, the TGI in [1] was 31.3 µM and 36.5 µM; in experiment [2], > 53.9 µM and 31.6 µM; in experiment [3], > 100 µM and 38.1 µM; in experiment [4], > 100 µM and 72.4 µM; in experiment [5], > 63.1 µM and 31.8 µM; in experiment [6], over 100 µM. For the same compound, the TGI is > 100 µM and 94.7 µM in experiment [7]; > 100 µM and 31 µM in experiment [8]; > 100 µM and 37.5 µM in experiment [9]; over 100 µM in experiment [10].

As for `NS(=O)(=O)c1ccc(NC(=O)Nc2ccccc2F)cc1`, the TGI in experiment [1], in experiment [2], in experiment [3], in experiment [4], in experiment [5] and in experiment [6] was over 100 µM throughout. For the same compound, the TGI in [7], in [8], in experiment [9] and in experiment [10] was over 100 µM each time.

For `CC[C@H](NC(=O)[C@H](CS(=O)(=O)CC1CC1)N[C@@H](c1ccc(F)cc1)C(F)(F)F)C(=O)C(=O)NC1CC1`, the GI50 in experiment [1], in experiment [2], in experiment [3], in experiment [4], in [5] and in experiment [6] was over 100 µM each time. Moreover, the GI50 in experiment [7] was 86.8 µM; in [8], over 100 µM; in experiment [9], over 100 µM; in [10] it was over 100 µM. Besides, the TGI in experiment [1], in [2], in [3], in experiment [4], in [5] and in experiment [6] was over 100 µM each time. Also, the TGI in experiment [7], in experiment [8], in experiment [9] and in [10] was over 100 µM in each case.

Turning to `C=CCCC(=O)N1C=CC(=O)[C@H](O)[C@@H]1/C=C/c1ccccc1`, the GI50 is 9.84 µM in experiment [1]; 5.27 µM in experiment [2]; 13.3 µM in experiment [3]; over 32.5 µM in experiment [4]; 6.28 µM in experiment [5]; 5.17 µM in [6]. In addition, the GI50 in [7] is 6.55 µM; in experiment [8], 29.9 µM; in experiment [9], over 32.5 µM; in experiment [10], 17.2 µM. Besides, the TGI is over 32.5 µM in [1]; over 32.5 µM in [2]; over 32.5 µM in [3]; over 32.5 µM in experiment [4]; over 32.5 µM in [5]; 16.8 µM in experiment [6]. The TGI in experiment [7], in [8], in experiment [9] and in experiment [10] was over 32.5 µM each time.

On to `Cn1ncc(-c2ccc3c(=O)[nH]nc(CN)c3c2)c1-c1c(F)cc2ccccc2c1C#N`, for which the GI50 was 5.21 µM in experiment [1]; 4.07 µM in [2]; 6.31 µM in [3]; 8.18 µM in experiment [4]; 1.32 µM in experiment [5]; 6.97 µM in experiment [6]. The GI50 in experiment [7] was 1.52 µM; in experiment [8], 4.6 µM; in experiment [9] it was 4.63 µM; in [10], 9.44 µM. For the same compound, the TGI in [1] is 18.9 µM; in experiment [2] it was 16.5 µM; in [3] it was 20.3 µM; in experiment [4], 28.7 µM; in experiment [5], 4.11 µM; in experiment [6], 21.1 µM. Moreover, the TGI worked out at 12.6 µM in [7], 16.6 µM in experiment [8], 16.3 µM in experiment [9] and 24.1 µM in [10].

For `COc1ccc2c(c1)CC[C@@H]1[C@@H]2CC[C@]2(C)C=C(/C=C/C(=O)c3ccccc3)C[C@@H]12`, the GI50 in [1] is 15.5 µM; in experiment [2], 16.4 µM; in [3] it was 16.9 µM; in experiment [4], 19 µM; in [5] it was 14.9 µM; in experiment [6], 16.6 µM. For the same compound, the GI50 in experiment [7] is 18.6 µM; in experiment [8] it was 17.5 µM; in experiment [9], 21 µM; in experiment [10], 16.8 µM. The TGI in [1] turned out to be 29.1 µM; in experiment [2] it was 31.1 µM; in experiment [3] it was 31.2 µM; in experiment [4], 49 µM; in experiment [5] it was 29.9 µM; in experiment [6], 34.3 µM. The TGI in experiment [7] turned out to be 36.3 µM; in experiment [8] it was 34.5 µM; in experiment [9], 41.5 µM; in experiment [10] it was 31.5 µM.

For the compound `COc1cc([C@@H]2c3cc4c(cc3C(OC3O[C@@H]5COC(C)O[C@H]5[C@H](O)[C@H]3O)C3COC(=O)[C@@H]32)OCO4)cc(OC)c1O` (stereo not given in full), the GI50 in [1] is 0.976 µM; in experiment [2], 1.27 µM; in [3], 0.619 µM; in experiment [4] it was 1.97 µM; in [5], 0.444 µM; in experiment [6], 1.37 µM. Moreover, the GI50 in experiment [7] is 0.254 µM; in experiment [8], 0.982 µM; in experiment [9], 7.37 µM; in experiment [10] it was 0.836 µM. In addition, the TGI in [1] was 3.67 µM; in experiment [2] it was over 25 µM; in experiment [3] it was 2.97 µM; in experiment [4], over 31.8 µM; in [5], 13.7 µM; in experiment [6] it was 7.83 µM. For the same compound, the TGI in experiment [7] is over 50 µM; in experiment [8] it was 8.31 µM; in experiment [9], 31.9 µM; in experiment [10], over 47.9 µM.

Consider `Nc1c(C(=O)Nc2cccc(Br)c2)sc2nc3c(cc12)C(O)CCC3` (stereo not given), for which the GI50 in [1] was 0.645 µM; in experiment [2] it was 0.848 µM; in experiment [3], 0.575 µM; in experiment [4], 0.395 µM; in [5], 0.726 µM; in [6], 0.36 µM. The GI50 was 0.289 µM in [7], 0.361 µM in [8], 0.484 µM in experiment [9] and 2.52 µM in experiment [10]. For the same compound, the TGI in experiment [1] was 36.1 µM; in [2], 31.1 µM; in experiment [3], 48.3 µM; in [4], 12.7 µM; in experiment [5], over 85.1 µM; in experiment [6], over 100 µM. For the same compound, the TGI in [7] was over 64.2 µM; in experiment [8] it was 6.26 µM; in experiment [9] it was 36.8 µM; in experiment [10], 53.9 µM.
